Results published in article PMC6446940 (ChemMedChem, 2018).
Where two headings read alike, the source gives them in different places.

Tests used:
[1] = test system: control pseudovirus VSV-G; assay: microbe, parasite or virus in culture; assay type: cell-based; conditions: Pseudovirus, U87/CD4/CCR5
Cytotoxicity [2] = assay type: cell-based, human; conditions: human, freshly isolated and stimulated uninfected PBMC
Cytotoxicity [3] = assay type: cell-based; conditions: human, U87-CD4-CCR5 cells
[4] = target: HIV-1 Reverse Transcriptase (RT) (Human immunodeficiency virus type 1 group M subtype B, UniProt P04585); assay: biochemical; assay type: biochemical
[5] = test system: HIV-1 Env pseudovirus QB726.70M.ENV.C4; assay: Single-cycle assay TZM-bl, Env pseudovirus panel; conditions: TZM-bl
[6] = test system: HIV-1 Env pseudovirus QF495.23M.ENV.A3; assay: Single-cycle assay TZM-bl, Env pseudovirus panel; conditions: TZM-bl
[7] = test system: HIV-1 Env pseudovirus KNH1144; assay: Single-cycle assay TZM-bl, Env pseudovirus panel
[8] = test system: HIV-1 Env pseudovirus QA790.204I.ENV.A4; assay: Single-cycle assay TZM-bl, Env pseudovirus panel; conditions: TZM-bl
[9] = test system: HIV-1 Env pseudovirus QA790.204I.ENV.E2; assay: Single-cycle assay TZM-bl, Env pseudovirus panel; conditions: TZM-bl
[10] = test system: HIV-1 Env pseudovirus QG393.60M.ENV.B7; assay: Single-cycle assay TZM-bl, Env pseudovirus panel; conditions: TZM-bl
[11] = test system: HIV-1 Env pseudovirus CRF02_AG, clone 251; assay: Single-cycle assay TZM-bl, Env pseudovirus panel; conditions: TZM-bl
[12] = test system: HIV-1 Env pseudovirus CRF02_AG, clone 257; assay: Single-cycle assay TZM-bl, Env pseudovirus panel; conditions: TZM-bl
[13] = test system: HIV-1 Env pseudovirus CRF02_AG, clone 33; assay: Single-cycle assay TZM-bl, Env pseudovirus panel; conditions: TZM-bl
[14] = test system: HIV-1 Env pseudovirus PVO, clone 4; assay: Single-cycle assay TZM-bl, Env pseudovirus panel; conditions: TZM-bl
[15] = test system: HIV-1 Env pseudovirus TRO, clone 11; assay: Single-cycle assay TZM-bl, Env pseudovirus panel; conditions: TZM-bl
[16] = test system: HIV-1 Env pseudovirus REJO4541, clone 67; assay: Single-cycle assay TZM-bl, Env pseudovirus panel
[17] = test system: HIV-1 Env pseudovirus RHPA4259, clone 7; assay: Single-cycle assay TZM-bl, Env pseudovirus panel; conditions: TZM-bl
[18] = test system: HIV-1 Env pseudovirus THRO4156, clone 18; assay: Single-cycle assay TZM-bl, Env pseudovirus panel
[19] = test system: HIV-1 Env pseudovirus 1054.TC4.1499; assay: Single-cycle assay TZM-bl, Env pseudovirus panel; conditions: TZM-bl
[20] = test system: HIV-1 Env pseudovirus WEAUd15.410.5017; assay: Single-cycle assay TZM-bl, Env pseudovirus panel; conditions: TZM-bl
[21] = test system: HIV-1 Env pseudovirus Du422, clone 1; assay: Single-cycle assay TZM-bl, Env pseudovirus panel; conditions: TZM-bl
[22] = test system: HIV-1 Env pseudovirus ZM109F.PB4; assay: Single-cycle assay TZM-bl, Env pseudovirus panel; conditions: TZM-bl
[23] = test system: HIV-1 Env pseudovirus HIV-00836-2, clone 5; assay: Single-cycle assay TZM-bl, Env pseudovirus panel; conditions: TZM-bl
[24] = test system: HIV-1 Env pseudovirus HIV-25925-2, clone 22; assay: Single-cycle assay TZM-bl, Env pseudovirus panel
[25] = test system: HIV-1 Env pseudovirus QB099.391M.ENV.C8; assay: Single-cycle assay TZM-bl, Env pseudovirus panel; conditions: TZM-bl
[26] = test system: HIV-1 Env pseudovirus QA013.70I.ENV.H1; assay: Single-cycle assay TZM-bl, Env pseudovirus panel; conditions: TZM-bl
[27] = test system: HIV-1 Env pseudovirus QD435.100M.ENV.B5; assay: Single-cycle assay TZM-bl, Env pseudovirus panel; conditions: TZM-bl
[28] = test system: HIV-1 Env pseudovirus QD435.100M.ENV.E1; assay: Single-cycle assay TZM-bl, Env pseudovirus panel
[29] = test system: HIV-1 Env pseudovirus MG505.W0M.ENV.A2; assay: Single-cycle assay, Paired Infant and Maternal Env clones
[30] = test system: HIV-1 Env pseudovirus B1206.W6P.ENV.A1A; assay: as above
[31] = test system: HIV-1 Env pseudovirus MI206.W0M.ENV.D1; assay: as above
[32] = test system: HIV-1 Env pseudovirus BJ613.W6M.ENV.E1; assay: as above
[33] = test system: HIV-1 Env pseudovirus ML274.W0M.ENV.B1; assay: as above
[34] = test system: HIV-1 Env pseudovirus BK184.W6M.ENV.D2; assay: as above
[35] = test system: HIV-1 panel of Paired Infant (B) and Maternal (M) Env Molecular Clones; assay: Single-cycle assay, means over Paired Infant and Maternal Env clones
[36] = Human immunodeficiency virus 1, read-out: IC50 Mean ± SEM: Infant (B)
[37] = Human immunodeficiency virus 1, read-out: IC50 Mean ± SEM: Mother (M)
[38] = Human immunodeficiency virus 1, read-out: IC50 Mean ± SEM: Overall (n=10)

| SMILES | IC50 [1] [µM] | CC50 at 7 days (Cytotoxicity [2]) [µM] | CC50 at 3 days (Cytotoxicity [3]) [µM] | IC50 [5] [µM] | IC50 [6] [µM] | IC50 [7] [µM] | IC50 [8] [µM] | IC50 [9] [µM] | IC50 [10] [µM] | IC50 [11] [µM] | IC50 [12] [µM] | IC50 [13] [µM] | IC50 [14] [µM] | IC50 [15] [µM] | IC50 [16] [µM] | IC50 [17] [µM] | IC50 [18] [µM] | IC50 [19] [µM] | IC50 [20] [µM] | IC50 [21] [µM] | further results |
| --- | --- | --- | --- | --- | --- | --- | --- | --- | --- | --- | --- | --- | --- | --- | --- | --- | --- | --- | --- | --- | --- |
| NCC(NC(=O)c1ccc(-c2ccc3c(c2)OCO3)[nH]1)c1ncc(CO)s1 (stereo not shown) [NBD-14123, N-(2-amino-1-(5-(hydroxymethyl)thiazol-2-yl)ethyl)-5-(benzo[d][1,3]dioxol-5-yl)-1H-pyrrole-2-carboxamide] | 45.3 ± 2.3 | 61.3 ± 4 | > 100 | 3.5 ± 0.1 | 3.3 ± 0.2 | 4.1 ± 0.4 | 1.6 ± 0.1 | 2.5 ± 0.3 | 5.9 ± 0.2 | 3.1 ± 0.2 | 4.4 ± 0.1 | 3.5 ± 0.4 | 1.9 ± 0.2 | 3.6 ± 0.2 | 3.4 ± 0.2 | 3.1 ± 0.7 | 3.1 ± 0.1 | 2.4 ± 0.3 | 3.4 ± 0.2 | 2.5 ± 0.3 | IC50 [4]: 39.5 ± 2.8 µM; IC50 [22]: 3 ± 0.2 µM; IC50 [23]: 3.2 ± 0.2 µM; IC50 [24]: 5.6 ± 0.3 µM; IC50 [25]: 4.4 ± 0.6 µM; IC50 [26]: 2.5 ± 0.4 µM; IC50 [27]: 3.5 ± 0.3 µM; IC50 [28]: 5.3 ± 0.4 µM; IC50 [29]: 3.7 ± 0.2 µM; IC50 [30]: 4.9 ± 0.3 µM; IC50 [31]: 3.4 ± 0.3 µM; IC50 [32]: 2.5 ± 0.1 µM; IC50 [33]: 5.6 ± 0.4 µM; IC50 [34]: 3.6 ± 0.1 µM; IC50 [35, 36]: 4.2e-06 ± 6e-07 M; IC50 [35, 37]: 4.1e-06 ± 4e-07 M; IC50 [35, 38]: 4.2e-06 ± 3e-07 M |
| CNCC(NC(=O)c1ccc(-c2ccc3c(c2)OCO3)[nH]1)c1nc(CO)cs1 (stereo not shown) [NBD-14159, 5-(benzo[d][1,3]dioxol-5-yl)-N-(1-(4-(hydroxymethyl)thiazol-2-yl)-2-(methylamino)ethyl)-1H-pyrrole-2-carboxamide] | 41.3 ± 3.4 | 68.3 ± 5 | > 100 | 2.7 ± 0.2 | 3.7 ± 0.1 | 4 ± 0.3 | 4 ± 0.4 | 3.2 ± 0.2 | 3.8 ± 0.4 | 3.5 ± 0.1 | 4.8 ± 0.2 | 2.7 ± 0.2 | 4.3 ± 0.7 | 4.4 ± 0.6 | 3.1 ± 0.4 | 3.7 ± 0.4 | 2.7 ± 0.2 | 4.1 ± 0.1 | 3.3 ± 0.2 | 3.1 ± 0.3 | IC50 [22]: 3.3 ± 0.1 µM; IC50 [23]: 4.9 ± 0.3 µM; IC50 [24]: 4.2 ± 0.5 µM; IC50 [25]: 5 ± 0.1 µM; IC50 [26]: 4.3 ± 0.7 µM; IC50 [27]: 3.3 ± 0.2 µM; IC50 [28]: 3.5 ± 0.2 µM; IC50 [29]: 4.6 ± 0.1 µM; IC50 [30]: 4 ± 0.3 µM; IC50 [31]: 3.4 ± 0.2 µM; IC50 [32]: 3 ± 0.1 µM; IC50 [33]: 5.4 ± 0.5 µM; IC50 [34]: 4.2 ± 0.1 µM; IC50 [35, 36]: 4e-06 ± 3e-07 M; IC50 [35, 37]: 3.8e-06 ± 5e-07 M; IC50 [35, 38]: 3.9e-06 ± 3e-07 M |
